Data as given in ChEMBL document CHEMBL1201862, “PubChem BioAssay data set” (2004).
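Step 1: Grow cells in 96-well plates. Step 2: Expose to compound for 48 hours at 5 concentrations. Step 3: Interpolate endpoints linearly; if unreached, use highest concentration. GI50 = concentration required for 50% inhibition of growth.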 The source made the active and inactive calls. Cut-off read from the data, not from the text of the source: active = GI50 up to about 1.1 µM and inactive = higher.

Experiments:
Assay in all cases: inhibition of tumour cell growth, NCI panel, 48 h
[1] = tested on: CAKI-1
[2] = tested on: NCI/ADR-RES
[3] = tested on: RXF 393
[4] = tested on: SNB-75
[5] = tested on: SNB-19
[6] = tested on: NCI-H23
[7] = tested on: IGROV-1
[8] = tested on: CCRF-CEM
[9] = tested on: OVCAR-8
[10] = tested on: HT-29
[11] = tested on: MCF7
[12] = tested on: MOLT-4
[13] = tested on: OVCAR-4
[14] = tested on: SW-620
[15] = tested on: ACHN
[16] = tested on: U-251
[17] = tested on: SF-539
[18] = tested on: T47D
[19] = tested on: PC-3
[20] = tested on: BT-549

| SMILES | GI50 [1] | GI50 [2] | GI50 [3] | GI50 [4] | GI50 [5] | GI50 [6] | GI50 [7] | GI50 [8] | GI50 [9] | GI50 [10] | GI50 [11] | GI50 [12] | GI50 [13] | GI50 [14] | GI50 [15] | GI50 [16] | GI50 [17] | GI50 [18] | GI50 [19] | GI50 [20] |
| --- | --- | --- | --- | --- | --- | --- | --- | --- | --- | --- | --- | --- | --- | --- | --- | --- | --- | --- | --- | --- |
| C#CCn1c(=O)c(C#N)c(O)c2cc3ccccc3nc21 | > 100 µM (inactive) | > 100 µM (inactive) | > 100 µM (inactive) | > 100 µM (inactive) | > 100 µM (inactive) | > 100 µM (inactive) | > 100 µM (inactive) | > 100 µM (inactive) | > 100 µM (inactive) | > 100 µM (inactive) | > 100 µM (inactive) | > 100 µM (inactive) | > 10 µM (inactive) | > 100 µM (inactive) |  |  |  |  |  |  |
| COc1c2c(c(O)c3c4c(c(C)cc13)C1OC3(C(OC)OC5CC(C)(O)C(OC6CC(C)(O)C(O)C(C)O6)C(C)O5)OC1C(OC)(O4)C31CO1)C(=O)C(O)CC2OC1CC(C)(O)C(OC(C)=O)C(C)O1 (configuration not stated) | 0.052 µM (active) |  | < 0.01 µM (active) | < 0.01 µM (active) | < 0.01 µM (active) | < 0.01 µM (active) | < 0.01 µM (active) | < 0.01 µM (active) | < 0.01 µM (active) | < 0.01 µM (active) |  | < 0.01 µM (active) | < 0.01 µM (active) | < 0.01 µM (active) | < 0.0112 µM (active) | < 0.01 µM (active) | < 0.01 µM (active) |  |  |  |
| CSC(=N)NNC(=O)CCC(=O)Nc1ccccc1C(F)(F)F | > 100 µM (inactive) |  | > 100 µM (inactive) | > 52.2 µM (inactive) | > 100 µM (inactive) | > 100 µM (inactive) | > 100 µM (inactive) | > 100 µM (inactive) | > 100 µM (inactive) | > 100 µM (inactive) |  | > 100 µM (inactive) | > 100 µM (inactive) | > 82.2 µM (inactive) | > 100 µM (inactive) | > 100 µM (inactive) | > 79.8 µM (inactive) |  |  |  |
| C(/C=N/c1ccccc1)=C(/Nc1ccccc1)C12CC3CC(CC(C3)C1)C2 | 15.4 µM (inactive) | 19.3 µM (inactive) | 17.1 µM (inactive) | 20.9 µM (inactive) | 17.2 µM (inactive) | 18.3 µM (inactive) | 17.6 µM (inactive) | 2.72 µM (inactive) | 20.7 µM (inactive) | 12.6 µM (inactive) | 20.5 µM (inactive) | 5.73 µM (inactive) | 16.3 µM (inactive) | 14 µM (inactive) | 13.6 µM (inactive) | 15 µM (inactive) |  | 15.3 µM (inactive) | 14.9 µM (inactive) | 16.6 µM (inactive) |
| CCN(CC)CC(=N)N(CC)c1ccccc1 | > 100 µM (inactive) |  | > 100 µM (inactive) | 33.7 µM (inactive) | > 100 µM (inactive) | > 100 µM (inactive) | > 100 µM (inactive) | > 100 µM (inactive) | > 100 µM (inactive) |  |  | > 100 µM (inactive) | > 100 µM (inactive) | > 100 µM (inactive) | > 100 µM (inactive) | > 100 µM (inactive) | > 100 µM (inactive) |  |  |  |
| CCN(CC)Cc1ccc2cccnc2c1O | 2.47 µM (inactive) | 0.358 µM (active) | 93.1 µM (inactive) | 0.577 µM (active) | 18.5 µM (inactive) | 6.67 µM (inactive) | 2.77 µM (inactive) | 0.713 µM (active) | 2.03 µM (inactive) | 2.9 µM (inactive) | 3.27 µM (inactive) | 1.93 µM (inactive) | 16.4 µM (inactive) | 3.3 µM (inactive) | 2.33 µM (inactive) | 4.47 µM (inactive) | 6.58 µM (inactive) |  | 6.05 µM (inactive) | 37.1 µM (inactive) |
| CCN1CCC(O)(/C=C/c2ccccc2C)C(C(=O)/C=C/c2ccccc2C)C1 (configuration not stated) | 1.82 µM (inactive) | 3.65 µM (inactive) | 1.92 µM (inactive) | 4.92 µM (inactive) |  | 1.8 µM (inactive) | 3.62 µM (inactive) | 1.85 µM (inactive) | 2.71 µM (inactive) | 2.63 µM (inactive) | 3.15 µM (inactive) | 2.38 µM (inactive) | 3.67 µM (inactive) | 2.74 µM (inactive) |  | 2.34 µM (inactive) | 2.31 µM (inactive) | 1.85 µM (inactive) | 1.93 µM (inactive) | 2.84 µM (inactive) |
| O=Cc1ccc(CCl)cc1 |  |  | 16.9 µM (inactive) | > 10 µM (inactive) | 14.7 µM (inactive) | > 10 µM (inactive) | 20.8 µM (inactive) | 12.4 µM (inactive) | 18.8 µM (inactive) | 16.8 µM (inactive) |  | 22.9 µM (inactive) |  | 21.5 µM (inactive) | 22.5 µM (inactive) | 18.2 µM (inactive) | 17.1 µM (inactive) |  |  |  |
| Nc1ccc(C2(c3ccc(N)cc3)C3CC4CC(C3)CC2C4)cc1 | 15 µM (inactive) | 0.0792 µM (active) | 2.74 µM (inactive) |  | 14.6 µM (inactive) | 12.4 µM (inactive) | 9.59 µM (inactive) | 3.76 µM (inactive) | 7.73 µM (inactive) | 0.998 µM (active) | 19.5 µM (inactive) | 4.95 µM (inactive) | 14.3 µM (inactive) | 11.4 µM (inactive) | 18.7 µM (inactive) | 18.3 µM (inactive) |  | 14.5 µM (inactive) | 14.9 µM (inactive) | 11.2 µM (inactive) |
| COc1ccc(/C=C/c2cnccn2)cc1OC | > 10 µM (inactive) | > 10 µM (inactive) | > 10 µM (inactive) | > 10 µM (inactive) | > 10 µM (inactive) | > 10 µM (inactive) | > 10 µM (inactive) |  | > 10 µM (inactive) | > 10 µM (inactive) | > 10 µM (inactive) |  | > 10 µM (inactive) | > 10 µM (inactive) | > 10 µM (inactive) | > 10 µM (inactive) | > 10 µM (inactive) | > 10 µM (inactive) | > 10 µM (inactive) | > 10 µM (inactive) |
| NC(=O)c1coc(C2OC(CO)C(O)C2O)n1 (configuration not stated) | > 10 µM (inactive) |  |  |  | > 100 µM (inactive) | > 100 µM (inactive) | > 100 µM (inactive) | > 100 µM (inactive) |  | > 100 µM (inactive) |  | > 100 µM (inactive) | > 100 µM (inactive) | > 100 µM (inactive) | > 100 µM (inactive) | > 100 µM (inactive) | > 100 µM (inactive) |  |  |  |
| O=C(NC1C(O)C(O)C(CO)OC1n1cc(F)c(=O)[nH]c1=O)OCc1ccccc1 (configuration not stated) | > 100 µM (inactive) |  | > 100 µM (inactive) | > 100 µM (inactive) | > 100 µM (inactive) | > 100 µM (inactive) |  | 22.2 µM (inactive) |  | > 100 µM (inactive) |  |  | > 100 µM (inactive) | > 100 µM (inactive) | > 100 µM (inactive) | > 100 µM (inactive) |  |  |  |  |
| CCCCC(NC(=O)CC)C(=O)O (configuration not stated) | > 100 µM (inactive) | > 100 µM (inactive) |  | > 100 µM (inactive) | > 100 µM (inactive) | > 100 µM (inactive) | > 100 µM (inactive) | > 100 µM (inactive) | > 100 µM (inactive) | > 100 µM (inactive) | > 100 µM (inactive) | > 100 µM (inactive) | > 100 µM (inactive) | > 100 µM (inactive) |  | > 100 µM (inactive) | > 100 µM (inactive) |  |  |  |
| CCN(CC)CCN(C(=O)c1ccc(F)cc1)c1ccccc1N | > 10 µM (inactive) | > 10 µM (inactive) | > 10 µM (inactive) | > 10 µM (inactive) | > 10 µM (inactive) | > 10 µM (inactive) | > 10 µM (inactive) | > 10 µM (inactive) | > 10 µM (inactive) | > 10 µM (inactive) | > 10 µM (inactive) | > 10 µM (inactive) | > 10 µM (inactive) | > 10 µM (inactive) | > 10 µM (inactive) | > 10 µM (inactive) | > 10 µM (inactive) | > 10 µM (inactive) | > 10 µM (inactive) |  |
| COC(=O)C1OC(Oc2cc(O)c3c(=O)cc(-c4ccc(O)cc4)oc3c2)C(O)C(O)C1O (configuration not stated) | > 100 µM (inactive) | > 100 µM (inactive) | > 100 µM (inactive) | > 100 µM (inactive) | > 100 µM (inactive) | > 100 µM (inactive) | > 100 µM (inactive) | > 100 µM (inactive) | > 100 µM (inactive) | > 100 µM (inactive) | > 100 µM (inactive) | > 100 µM (inactive) | > 100 µM (inactive) | > 100 µM (inactive) |  | > 100 µM (inactive) | > 100 µM (inactive) |  |  |  |
| Nc1ncnc2c1ncn2C=C=CCO | > 100 µM (inactive) | > 100 µM (inactive) | > 100 µM (inactive) | > 100 µM (inactive) | > 100 µM (inactive) | > 100 µM (inactive) |  | > 100 µM (inactive) | > 100 µM (inactive) | > 100 µM (inactive) | > 100 µM (inactive) | > 100 µM (inactive) | > 100 µM (inactive) | > 100 µM (inactive) |  | > 100 µM (inactive) |  | > 100 µM (inactive) | > 100 µM (inactive) | > 100 µM (inactive) |
| Cn1ccc(C(=O)NCCN(CCNC(=O)c2ccn(C)c(=O)c2O)CCNC(=O)c2ccn(C)c(=O)c2O)c(O)c1=O | > 100 µM (inactive) | > 100 µM (inactive) | > 100 µM (inactive) | > 100 µM (inactive) | > 100 µM (inactive) | > 100 µM (inactive) | > 100 µM (inactive) | > 100 µM (inactive) | > 100 µM (inactive) | > 100 µM (inactive) | > 100 µM (inactive) |  | > 100 µM (inactive) | > 100 µM (inactive) | 74.6 µM (inactive) | > 100 µM (inactive) | > 100 µM (inactive) | > 100 µM (inactive) | > 100 µM (inactive) | > 100 µM (inactive) |
